Consider eleven compounds from patent publication US4212866A, “Pharmaceutically active derivatives of 9-[3-(4-amino-piperidino)-propyl]-adenines” (Boehringer Mannheim GmbH, priority 1978, dated 1980).

Structures are written as SMILES.

This test relates to passive cutaneous anaphylactic reaction. The test is described as follows: inhibition of the passive cutaneous anaphylactic (PCA) reaction in rats induced by reaginic antibodies to egg albumin. It counts as in vivo. The following applies: Rattus norvegicus, iv, intravenously immediately before antigen. How it is done: Diethylcarbamazin, i.e. 1-diethylcarbamoyl-4-methylpiperazine, was used as a comparison compound. Specifically, tests were run as follows:
Serum containing reaginic (IgE-like) antibody to egg albumin was prepared by injecting rats intramuscularly with 0.1 ml of a solution of the antigen (10 mg/ml) in saline together with 0.5 ml of Bordetella pertussis vaccine (Behring; 2×10^10 organisms/ml). 9-14 Days later the animals were bled from the abdominal aorta; the serum was pooled and stored at -20° C. until required. The titer of the serum, i.e. the highest dilution inducing passive cutaneous anaphylaxis (PCA) in the rat following a 48-hour latent period, was between 1:8 and 1:32. For use in these experiments the serum was diluted 1:24.
The animals were anesthetized with 2,2-dichloro-1,1-difluoroethyl-methyl ether, sold under the trademark Penthrane, and were sensitized by injecting 0.1 ml of the antiserum into the shaved abdominal flanks. After 48 hours for reaginic PCA, the animals were given an intravenous injection of 1 ml of saline solution containing 0.5% by weight of egg albumin and 0.25% by weight of Evans Blue.
After having killed and exsanguinated the animals, the size in square millimeters and the intensity, in arbitary scores, of the resulting blue spot were determined. The product of these two parameters was used to determine the degree of the reaction and the degree of reaction with no active material was taken as the standard against which to measure % inhibition of the anaphylactic reaction.
6 Animals were used per dose level and for control.
The test material was injected intravenously immediately before the antigen, using a solution in water containing 0.5% HCl and 2% of dimethylformamide. For comparative purposes there was also tested diethylcarbamoyl-4-methylpiperazine sold under the tradename Diethylcarbamazin. The volumes of the injections were varied to give the indicated dosage of the active material. The results obtained were as follows:
PCA Reaction in Rats Induced by Reaginic Antibodies
(Ovalbumin 2×cryst, and Bord. pertussis 2×10^10) Active material applied intravenously immediately before antigen.

As to `CCN(CC)C(=O)N1CCN(C)CC1` [Diethylcarbamazin, 1-diethylcarbamoyl-4-methylpiperazine, reference compound], the inhibition in vivo (usually the share of the control response that was lost under treatment) at 60 mg/kg (60.0 mg/kg) worked out at 58%. As for `Nc1ncnc2c1ncn2CCCN1CCC(NC(=O)c2ccc(F)cc2)CC1` [Example 2b, 9-{3-[4-(4-Fluorobenzamido)-piperidino]-propyl}-adenine], the inhibition in vivo at 1.5 mg/kg came out at 65%.

`Cc1ccccc1C(=O)NC1CCN(CCCn2cnc3c(N)ncnc32)CC1` [Example 2e, 9-{3-[4-(2-Methyl-benzamido)-piperidino]-propyl}-adenine] had an inhibition in vivo at 1.5 mg/kg of 39%. Still for that read-out and setting: with `Cc1ccc(C(=O)NC2CCN(CCCn3cnc4c(N)ncnc43)CC2)cc1` [Example 2f, 9-{-[4-(4-Methyl-benzamido)-piperidio]-propyl}-adenine] the figure was 74%. Consider `O=C(NC1CCN(CCCn2cnc3c(NCCO)ncnc32)CC1)c1ccccc1` [Example 2j, N^6-(2-Hydroxyethyl)-9-[3-(4-benzamido-piperidino)-propyl] adenine], for which the inhibition in vivo at 0.75 mg/kg turned out to be 44%. On the same count and under the same terms, with `CCCCNc1ncnc2c1ncn2CCCN1CCC(NC(=O)c2ccccc2)CC1` [Example 2k, N^6-n-Butyl-9-[3-(4-Benzamido-piperidino)-propyl]-adenine] the figure was 41%.

Compound `CN(C)c1ncnc2c1ncn2CCCN1CCC(NC(=O)c2ccccc2)CC1` [Example 2l, 6-Dimethylamino-9-[3-(4-benzamido-piperidino)-propyl]-purine] yielded an inhibition in vivo at 1.5 mg/kg of 43%. For `O=C(NC1CCN(CCCn2cnc3c(N4CCCCC4)ncnc32)CC1)c1ccccc1` [Example 2m, 6-Piperidino-9-[3-(4-benzamido-piperidino)-propyl]-purine], testing at 1.5 mg/kg gave an inhibition in vivo of 36%. Compound `Nc1ncnc2c1ncn2CCCN1CCC(NC(=O)c2ccc(Cl)cc2)CC1` [Example 4a, 9-{3-[4-(4-Chlorobenzamido)-piperidino]-propyl}-adenine] displayed an inhibition in vivo at 1.5 mg/kg of 80%. On the same count and under the same terms, with `Nc1ncnc2c1ncn2CCCN1CCC(NC(=O)Cc2ccccc2)CC1` [Example 4d, 9-{3-[4-(Phenyl-acetamido)-piperidino]-propyl}-adenine] the figure was 30%. Still for that read-out and setting: with `Nc1ncnc2c1ncn2CCCN1CCC(NC(=O)c2ccco2)CC1` [Example 4f, 9-{3-[4-(Furan-2-carbonylamido)-piperidino]-propyol}-adenine] the figure was 44%.
